US8614236B2 (University of Washington, priority 2006, dated 2013)
“And” between values parts separate entries of the source, which are not always exact repeats. Equal entries are not always repeated.

Key:
[1] = system: PASMCs; assay: Basal intracellular Ca2+ concentration in PASMCs (Fura-2); assay type: cell-based, rat; conditions: for basal [Ca^2+]i, Treatment: 100 μM, after 10 min of perfusion; for effect on resting [Ca^2+]i: 10-100 μM; for basal [Ca^2+]i, Baseline: before perfusion with the compound
Protocol: Intrapulmonary arteries (200-600 μm o.d.) were isolated from male Wistar rats (250-350 g) and cleaned of connective tissue. After the lumen was gently rubbed with a cotton swab to remove the endothelial cells, the arteries were allowed to recover for 30 minutes in cold (4° C.) HBSS containing (in mM): 130 NaCl, 5 KCl, 1.2 MgCl2, 1.5 CaCl2, 10 N-[2-hydroxyethyl]piperazine-N′-[2-ethanesulfonic acid] (HEPES) and 10 glucose, with pH adjusted to 7.2 with 5 M NaOH, followed by 20 minutes in reduced-Ca^2+ (20 μM CaCl2) HBSS at room temperature. […] Following digestion, single smooth muscle cells were dispersed by gentle trituration with a wide-bore transfer pipette in Ca^2+-free HBSS and the cell suspension was placed on 25 mm glass cover slips. PASMCs were transiently cultured in Ham's-F-12 media supplemented with 0.5% fetal bovine serum and 1% penicillin/streptomycin for 24-48 hrs. before study.
Acute hypoxia increases intracellular [Ca^2+] in pulmonary arterial smooth muscle by enhancing capacitative Ca^2+ entry. […] Ratiometric measurement of fluorescence from the dye was performed on a workstation (Intracellular Imaging Inc, Cincinnati, Ohio) consisting of a Nikon TSE 100 Ellipse inverted microscope with epi-fluorescence attachments. The light beam from a xenon arc lamp was filtered at 340 and 380 nm, and focused onto the PASMCS under examination via a 20× fluorescence objective (Super Fluor 20, Nikon). Light emitted from the cell at 510 nm was returned through the objective and detected by a cooled CCD imaging camera. An electronic shutter (Sutter Instruments) was used to minimize photobleaching of dye. Protocols were executed and data collected on-line with InCyte software (Intracellular Imaging Inc). [Ca^2+]i was estimated from in vitro calibration solutions.

[2] = system: PASMCs; assay: Intracellular pH (pHi) in PASMCs (BCECF-AM); assay type: cell-based, rat; conditions: for basal pHi, Baseline: before the compound
Protocol: The method for obtaining single PASMCs has been described previously in Shimoda L. A., et al., Am J Physiol 274: 842-853 (1998), which is hereby incorporated by reference in its entirety. Intrapulmonary arteries (200-600 μm o.d.) were isolated from male Wistar rats (250-350 g) and cleaned of connective tissue. After the lumen was gently rubbed with a cotton swab to remove the endothelial cells, the arteries were allowed to recover for 30 minutes in cold (4° C.) HBSS containing (in mM): 130 NaCl, 5 KCl, 1.2 MgCl2, 1.5 CaCl2, 10 N-[2-hydroxyethyl]piperazine-N′-[2-ethanesulfonic acid] (HEPES) and 10 glucose, with pH adjusted to 7.2 with 5 M NaOH, followed by 20 minutes in reduced-Ca^2+ (20 μM CaCl2) HBSS at room temperature. The tissue was enzymatically digested in reduced-Ca^2+ HBSS containing collagenase (type I; 1750 U/ml), papain (9.5 U/ml), bovine serum albumin (2 mg/ml) and dithiothreitol (1 mM) at 37° C. for 20 minutes. Following digestion, single smooth muscle cells were dispersed by gentle trituration with a wide-bore transfer pipette in Ca^2+-free HBSS and the cell suspension was placed on 25 mm glass cover slips. PASMCs were transiently cultured in Ham's-F-12 media supplemented with 0.5% fetal bovine serum and 1% penicillin/streptomycin for 24-48 hrs. before study.
pHi within PASMCs was monitored using the cell permeant pH sensitive dye 2′,7′-bis(carboxyethyl)-5(6)-carboxyflourescein (BCECF-AM). Cells were incubated with BCECF-AM for 60 min at 37° C. under an atmosphere of 21% O2-5% CO2. Cells were then washed with Kreb's solution for 15 min at 37° C. to remove extracellular dye and allow complete de-esterification of cytosolic dye. Cells were excited with light at 490 and 440 nm and light emitted from the cells was detected at 530 nm. The ratio of 490 to 440 nm emission was calculated and converted into pH values by performing a calibration curve after each experiment. PASMCs were subjected to a high K^+ buffer containing 10 μM nigericin, which allowed the cell to adopt the pH of the high K^+ buffer. Two high K^+/nigericin buffers were used to set pH to 6.5 or 7.5, pHi was estimated from in situ calibration after each experiment. Cells were perfused with a solution containing (in mM): 105 KCl, 1 MgCl2, 1.5 CaCl2, 10 glucose, 20 HEPES-Tris and 0.01 nigericin to allow pHi to equilibrate to external pH as in Quinn D. A., et al., Am J Respir Cell Mol Biol 5: 586-591 (1991), which is hereby incorporated by reference in its entirety. A two point calibration was created from fluorescence measured as pHi was adjusted with KOH from 6.5 to 7.5. Intracellular H^+ ion concentration ([H^+]i) was determined from pHi using the formula: pHi=−log ([H^+]i).

[3] = system: Beagle dogs; assay: Dog study: arterial blood gases, ventilation and acid-base status in normoxia and hypoxia; assay type: in vivo
Excerpt: The dogs were kept under highly standardized conditions and received a standardized diet five days before the experiments. […] To permit spontaneous breathing through a low resistance circuit, a face mask was attached, which enclosed the dog's snout in a leak proof fashion. This custom made mask is equipped with a 2.5 cm ID connector to connect it to a ventilator set to CPAP mode (3 4 cmH20) (Servo900C; Siemens-Elema, Erlangen/Germany).
Six dogs were studied in five different protocols in randomized order:
5) Ethoxzolamide (Sigma-Aldrich, Steinheim/Germany) intravenously: Bolus ethoxzolamide (1 mg/kg), followed by a continuous infusion of 1 mg·kg^−1·h^−1.
The hemodynamic measurements (arterial blood pressure, heart rate, central venous pressure, pulmonary artery pressure, pulmonary capillary wedge pressure), minute ventilation, renal function data, time points for blood samples for blood gases, actual bicarbonate, base excess, plasma electrolytes and hormones, measurements of plasma and urinary values were according to former studies.
Values are given as means±SEM (n=6). For intra-group comparisons a general linear model of analysis of variance (GLM-ANOVA) for repeated measures was applied (NCSS97/PASS 2000, Saugus/MA, USA). Post-hoc testing of means was performed with Student's t-test. Level of significance for error of first order was adjusted according to Holm's procedure. Statistical significance was assumed at p<0.05.

[4] = iv bolus + continuous infusion, hypoxia 2nd h
[5] = iv bolus + continuous infusion, hypoxia 3rd h
[6] = iv bolus + continuous infusion, normoxia 1st h
[7] = po 5 mg/kg 12 and 1 hr before, hypoxia 2nd h
[8] = po 5 mg/kg 12 and 1 hr before, hypoxia 3rd h
[9] = po 5 mg/kg 12 and 1 hr before, normoxia 1st h

In the case of `CCOc1ccc2nc(S(N)(=O)=O)sc2c1` [EZ, ethoxzolamide], the “basal [Ca^2+]i, Treatment” value [1] is reported as 122.5 ± 6.3 nM, the “effect on resting [Ca^2+]i” value [1] is reported as “neither EZ nor BZ altered” and the “basal [Ca^2+]i, Baseline” value [1] is reported as 125.5 ± 7.1 nM. The “basal pHi, Treatment” value ([2]; 100 μM) was 7.19 ± 0.04, the “effect on basal pHi” value ([2]; 100 μM) was “significant decrease” and the “basal pHi, Baseline” value [2] was 7.28 ± 0.04. The “BEa, arterial base excess” value [3, 4] was -6.2 ± 1.2 mM, the “HCO3a, arterial actual bicarbonate concentration” value [3, 4] was 18.1 ± 1.3 mM and the “PaCO2, arterial carbon dioxide tension” value [3, 4] was 26 ± 1 Torr. For the same molecule, the “PaO2, arterial oxygen tension” value [3, 4] was 36 ± 1 Torr, the “VE, minute ventilation” value [3, 4] was 6.4 ± 0.7 L/min and the “pHa, arterial pH” value [3, 4] was 7.41 ± 0.01. The “BEa, arterial base excess” value [3, 5] was -6.7 ± 1.1 mM, the “HCO3a, arterial actual bicarbonate concentration” value [3, 5] was 17.6 ± 1.3 mM and the “PaCO2, arterial carbon dioxide tension” value [3, 5] was 24 ± 1 Torr. For the same molecule, the “PaO2, arterial oxygen tension” value [3, 5] was 38 ± 1 Torr, the “VE, minute ventilation” value [3, 5] was 6.9 ± 0.9 L/min and the “pHa, arterial pH” value [3, 5] was 7.42 ± 0.01. For the same molecule, the “BEa, arterial base excess” value [3, 6] was -5.3 ± 0.5 mM, the “HCO3a, arterial actual bicarbonate concentration” value [3, 6] was 19.6 ± 0.6 mM and the “PaCO2, arterial carbon dioxide tension” value [3, 6] was 33 ± 1 Torr. The “PaO2, arterial oxygen tension” value [3, 6] was 105 ± 1 Torr, the “VE, minute ventilation” value [3, 6] was 4.0 ± 0.2 L/min and the “pHa, arterial pH” value [3, 6] was 7.37 ± 0.01.
For `CC(=O)Nc1nnc(S(N)(=O)=O)s1` [AZ, acetazolamide], the “basal [Ca^2+]i, Treatment” value [1] was 150.0 ± 9.6 nM and 155.0 ± 9.6 nM, the “effect on resting [Ca^2+]i” value [1] was “no effect” and the “basal [Ca^2+]i, Baseline” value [1] was 159.6 ± 10.8 nM. For the same molecule, the “effect on basal pHi” value ([2]; 100 μM) was “small decrease”, the “effect of hypoxia on pHi in treated cells” value ([2]; 100 μM, 4% O2) was “no effect” and the “pHi after hypoxia in pretreated PASMCs” value ([2]; 100 μM, 4% O2) was 7.24±0.03. The “basal pHi, Baseline” value [2] was 7.26±0.02, the “BEa, arterial base excess” value [3, 4] was -4.0 ± 0.3 mM and the “HCO3a, arterial actual bicarbonate concentration” value [3, 4] was 19.0 ± 0.4 mM. The “PaCO2, arterial carbon dioxide tension” value [3, 4] was 30 ± 1 Torr, the “PaO2, arterial oxygen tension” value [3, 4] was 37 ± 1 Torr and the “VE, minute ventilation” value [3, 4] was 5.8 ± 0.6 L/min. For the same molecule, the “BEa, arterial base excess” value [3, 5] was -5.6 ± 0.5 mM, the “HCO3a, arterial actual bicarbonate concentration” value [3, 5] was 17.5 ± 0.5 mM and the “PaCO2, arterial carbon dioxide tension” value [3, 5] was 28 ± 1 Torr. The “PaO2, arterial oxygen tension” value [3, 5] was 39 ± 1 Torr, the “VE, minute ventilation” value [3, 5] was 7.0 ± 0.6 L/min and the “BEa, arterial base excess” value [3, 6] was -3.1 ± 0.5 mM. The “HCO3a, arterial actual bicarbonate concentration” value [3, 6] was 20.9 ± 0.6 mM, the “PaCO2, arterial carbon dioxide tension” value [3, 6] was 34 ± 1 Torr and the “PaO2, arterial oxygen tension” value [3, 6] was 106 ± 3 Torr. For the same molecule, the “VE, minute ventilation” value [3, 6] was 4.0 ± 0.3 L/min, the “BEa, arterial base excess” value [3, 7] was -5.8 ± 0.4 mM and the “HCO3a, arterial actual bicarbonate concentration” value [3, 7] was 17.6 ± 0.6 mM. For the same molecule, the “PaCO2, arterial carbon dioxide tension” value [3, 7] was 29 ± 1 Torr, the “PaO2, arterial oxygen tension” value [3, 7] was 37 ± 1 Torr and the “VE, minute ventilation” value [3, 7] was 5.9 ± 0.2 L/min. For the same molecule, the “BEa, arterial base excess” value [3, 8] was -6.5 ± 0.4 mM, the “PaCO2, arterial carbon dioxide tension” value [3, 8] was 27 ± 1 Torr and the “PaO2, arterial oxygen tension” value [3, 8] was 38 ± 1 Torr. For the same molecule, the “VE, minute ventilation” value [3, 8] was 6.1 ± 0.2 L/min, the “BEa, arterial base excess” value [3, 9] was -7.2 ± 0.6 mM and the “HCO3a, arterial actual bicarbonate concentration” value [3, 9] was 17.1 ± 0.7 mM. The “PaCO2, arterial carbon dioxide tension” value [3, 9] was 32 ± 1 Torr, the “PaO2, arterial oxygen tension” value [3, 9] was 108 ± 2 Torr and the “VE, minute ventilation” value [3, 9] was 4.5 ± 0.3 L/min. For the same molecule, the “pHa, arterial pH” value [3, 9] was 7.34 ± 0.01.
`NS(=O)(=O)c1nnc(NS(=O)(=O)c2ccccc2)s1` [BZ, benzolamide] was tested, and the “basal [Ca^2+]i, Treatment” value [1] was 120.7 ± 7.7 nM, the “effect on resting [Ca^2+]i” value [1] was “neither EZ nor BZ altered” and the “basal [Ca^2+]i, Baseline” value [1] was 113.4 ± 7.4 nM. For the same molecule, the “basal pHi, Treatment” value ([2]; 100 μM) was 7.25 ± 0.03, the “effect on basal pHi” value ([2]; 100 μM) was “significant decrease” and the “basal pHi, Baseline” value [2] was 7.31 ± 0.02. For the same molecule, the “BEa, arterial base excess” value [3, 4] was -4.4 ± 0.4 mM, the “HCO3a, arterial actual bicarbonate concentration” value [3, 4] was 18.4 ± 0.3 mM and the “PaCO2, arterial carbon dioxide tension” value [3, 4] was 30 ± 1 Torr. The “PaO2, arterial oxygen tension” value [3, 4] was 37 ± 1 Torr, the “VE, minute ventilation” value [3, 4] was 4.4 ± 0.5 L/min and the “pHa, arterial pH” value [3, 4] was 7.41 ± 0.01. For the same molecule, the “BEa, arterial base excess” value [3, 5] was -4.9 ± 0.4 mM, the “HCO3a, arterial actual bicarbonate concentration” value [3, 5] was 17.7 ± 0.4 mM and the “PaCO2, arterial carbon dioxide tension” value [3, 5] was 29 ± 1 Torr. The “PaO2, arterial oxygen tension” value [3, 5] was 38 ± 1 Torr, the “VE, minute ventilation” value [3, 5] was 5.1 ± 0.6 L/min and the “pHa, arterial pH” value [3, 5] was 7.42 ± 0.01. For the same molecule, the “BEa, arterial base excess” value [3, 6] was -4.4 ± 0.4 mM, the “HCO3a, arterial actual bicarbonate concentration” value [3, 6] was 20.1 ± 0.3 mM and the “PaCO2, arterial carbon dioxide tension” value [3, 6] was 37 ± 1^ Torr. For the same molecule, the “PaO2, arterial oxygen tension” value [3, 6] was 96 ± 1^ Torr, the “VE, minute ventilation” value [3, 6] was 3.0 ± 0.2 L/min and the “pHa, arterial pH” value [3, 6] was 7.35 ± 0.01.
